What is called inhibition is the percentage by which the read-out fell short of the control. The low end stands for little suppression, the high end for strong suppression. What is called IC50 is the point on the concentration scale where inhibition reaches its midpoint.

The structures appear in SMILES notation. Calls of active or inactive are those of the source. The calls are words filed in the database; no cut-off is given here.

Here are results for 2 compounds from ChEMBL document CHEMBL1156505, “Allosteric transinhibition by specific antagonists in CCR2/CXCR4 heterodimers” (J Biol Chem, 2007).

The target of assay [1] is T1, C-C chemokine receptor type 2 (Homo sapiens, UniProt P41597). Briefly: Displacement of [125I]SDF1alpha from CCR2/CXCR4 expressed in CHOK1 cells. In kind it is cell-based. The conditions noted are these: CHO-K1; concentration not given here. A general note: Loss of bound radioactivity is the signal in a displacement assay; it reports binding, not function.
Target sequence in this assay (P41597 whole entry, looked up): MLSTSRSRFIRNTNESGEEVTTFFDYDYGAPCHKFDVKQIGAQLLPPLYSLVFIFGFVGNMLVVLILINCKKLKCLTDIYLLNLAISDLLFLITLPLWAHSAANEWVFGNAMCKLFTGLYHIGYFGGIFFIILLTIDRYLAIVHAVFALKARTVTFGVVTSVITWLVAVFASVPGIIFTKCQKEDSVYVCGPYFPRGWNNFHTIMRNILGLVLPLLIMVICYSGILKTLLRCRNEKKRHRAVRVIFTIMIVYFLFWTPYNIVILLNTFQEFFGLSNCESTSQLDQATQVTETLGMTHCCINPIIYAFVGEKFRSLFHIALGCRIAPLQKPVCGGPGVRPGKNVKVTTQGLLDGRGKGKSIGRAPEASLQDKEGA
Another assay is filed under the species Homo sapiens. Briefly: Inhibition of migration of human CD4+ lymphoblasts towards MCP1 by chemotaxis assay. The format is functional.
For assay [2], the target named is T1, C-C chemokine receptor type 2. Kind of assay: biochemical.
Target sequence in this assay (P41597 whole entry): as the sequence (P41597 whole entry, looked up) above
Description: Displacement of [125I]MCP1 from CCR2 expressed in CHOK1 cells
For assay [3] the target is unchanged. Briefly: Displacement of [125I]MCP1 from CCR2/CXCR4 expressed in CHOK1 cells. The format is cell-based. To be noted: CHO-K1; concentration not given here.
Target sequence in this assay (P41597 whole entry, looked up): as above

Take `Cc1ccc(-c2ccc3c(c2)C=C(C(=O)Nc2ccc(C[N+](C)(C)C4CCOCC4)cc2)CCC3)cc1`: the values for the inhibition in assay [1] and in assay [3] were 38.1% and 90.7%, respectively. In addition, in the assay listed under Homo sapiens, the outcome was Active. Also, in assay [2], the midpoint of inhibition, the IC50, lay at 250 pM.
For the compound `c1cc(CN2CCCNCCNCCCNCC2)ccc1CN1CCCNCCNCCCNCC1`, the inhibition was found to be 87.1% in assay [1] and 36.2% in assay [3].
